Experimental data from ChEMBL document CHEMBL1201862, “PubChem BioAssay data set” (2004).
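A five-concentration, 48-hour dose response in 96-well plates underlies each endpoint, interpolated linearly between surrounding concentrations. At the GI50, growth is halved.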 The source made the active and inactive calls. No stated cut-off is given here; in the data, active = GI50 up to about 1.1 µM and inactive = higher.

Experiments:
Experiment in all cases: NCI-60 cell line screen, 48 h
[1] = test system: RXF 631
[2] = test system: DLD-1
[3] = test system: HOP-18
[4] = test system: LXFL 529
[5] = test system: SNB-78
[6] = test system: XF498
[7] = test system: DMS-273
[8] = test system: M19-MEL
[9] = test system: KM-20L2

Measured: GI50

CCCCCCCCCCCCCCCc1nnc(SCC(=O)O)[nH]1
inactive: [1] 19.6 µM | [2] 23.4 µM | [3] > 100 µM | [4] 22.8 µM | [5] > 100 µM | [6] 65.8 µM

COC(=O)Cc1c([C@@]2(C)CCCC(C)(C)C2)ccc2c1C(=O)OC2
inactive: [1] 12.9 µM | [7] 5.43 µM | [2] 3.62 µM | [8] 15.1 µM | [3] 18.3 µM | [4] 7.29 µM | [5] 14.9 µM

CCCC1C[C@H]2CCCCN2[C@H]2CCCN12 (stereo not given in full)
inactive: [1] > 100 µM | [7] > 61.9 µM | [9] > 88.3 µM | [2] > 50.4 µM | [3] > 100 µM | [4] > 69.3 µM | [5] > 100 µM | [6] > 100 µM

COc1ccc(C[C@]23CCC(=O)N2CCc2cc(OC)c(O)cc23)cc1O
inactive: [1] > 100 µM | [7] > 100 µM | [9] > 100 µM | [8] > 100 µM | [3] > 100 µM | [4] > 100 µM | [5] > 100 µM

Cc1cc2c3c(coc3c1-c1c(C)cc3c4c(coc14)C(=O)C(O)=C3C(C)C)C(=O)C(O)=C2C(C)C
inactive: [1] 8.71 µM | [7] 4 µM | [9] 6.04 µM | [2] 4.6 µM | [8] 7.03 µM | [4] 3.77 µM | [5] 9.44 µM | [6] 4.79 µM

CC1=C(C(=O)Nc2cc(F)c(F)cc2F)C(c2cccc([N+](=O)[O-])c2)C(C(=O)Nc2ccccc2C(F)(F)F)=C(C)N1 (stereo not given)
inactive: [1] 19.2 µM | [9] 23.8 µM | [2] 25.3 µM | [8] 27.2 µM | [4] 16.8 µM | [5] 19.5 µM

O=C(CSc1nnc(Cc2ccccc2)o1)Nc1ccccc1Cl
inactive: [7] > 100 µM | [9] > 100 µM | [2] > 100 µM | [8] > 100 µM | [3] > 100 µM | [4] > 100 µM | [5] > 100 µM

CCCCc1c2c(nc3c1CC/C(=C\c1ccccc1)C3=O)CCCC2
inactive: [7] 2.59 µM | [9] 3.59 µM | [2] 3.38 µM | [8] 4.72 µM | [4] 1.74 µM | [5] 2.99 µM

NC(=S)NNC(=O)/C(=C/c1ccc(/C=C(\NC(=O)c2ccccc2)C(=O)NNC(N)=S)cc1)NC(=O)c1ccccc1
inactive: [7] > 100 µM | [9] > 100 µM | [2] > 63.7 µM | [8] 72.8 µM | [3] > 100 µM | [4] 80 µM | [5] 53.3 µM | [6] 70 µM

COc1cc2c(cc1O)C=NCC2
inactive: [7] > 100 µM | [9] > 100 µM | [2] > 100 µM | [8] > 100 µM | [4] > 100 µM | [5] > 100 µM | [6] > 100 µM

CC1(C)C(=O)C(C)(C)C1=NN
inactive: [7] > 100 µM | [9] > 100 µM | [2] > 100 µM | [8] > 100 µM | [4] > 100 µM | [5] > 100 µM | [6] > 100 µM

CC(=O)C1Cn2c(=O)c3cc4ccccc4cc3c(=O)n2C=C1C (stereo not given)
inactive: [1] > 100 µM | [7] > 100 µM | [9] > 100 µM | [2] > 100 µM | [8] > 100 µM | [4] 83.4 µM | [5] > 100 µM | [6] > 100 µM

CCSC(SCC)=C1C(=O)N(c2ccccc2)N=C1C
inactive: [7] 16.1 µM | [9] 16.8 µM | [2] 11.8 µM | [3] 13.2 µM | [4] 10 µM | [5] 18.6 µM | [6] 10.6 µM
active: [8] 0.378 µM

O=C(c1cccs1)N(C(=S)N1CCN(c2ccccn2)CC1)C1CCCCC1
inactive: [7] 43.1 µM | [9] 70.6 µM | [2] 63.8 µM | [3] > 100 µM | [4] 58.6 µM | [5] > 100 µM

N#C/C(=C(/S)Nc1ccccc1)c1nc2ccccc2[nH]1
inactive: [7] > 10 µM | [9] > 10 µM | [2] > 10 µM | [8] > 10 µM | [3] > 10 µM | [4] > 10 µM | [6] > 10 µM

Cc1cc(C=O)c2c(=O)c3c(O)ccc(/C=C/C(C)C)c3oc2c1
inactive: [7] 48.3 µM | [9] > 100 µM | [2] 70.1 µM | [8] 36.7 µM | [4] 43.4 µM

Cc1ccc(S(=O)(=O)Nc2cccc3c(=O)nc[nH]c23)cc1
inactive: [7] > 100 µM | [9] > 100 µM | [8] > 100 µM | [3] 53 µM | [4] > 86.7 µM | [5] > 100 µM | [6] > 100 µM

CC(=O)c1ccc2c(ccc(=O)n2C)c1
inactive: [7] > 100 µM | [9] > 100 µM | [2] > 100 µM | [8] > 100 µM | [3] > 100 µM | [4] > 100 µM | [6] > 100 µM

NC1=NN(c2ccccc2)C(=O)C1/C(=N\NC(=O)c1cc2ccccc2cc1O)C(=O)Nc1cccc(C(F)(F)F)c1 (stereo not given)
inactive: [9] 32.6 µM | [2] 36.6 µM | [8] 35.2 µM | [3] 21.2 µM | [4] 39.3 µM | [5] 44 µM | [6] 64.9 µM

CCN(c1ccccc1)[C@H]1C(=O)N(c2ccc([N+](=O)[O-])cc2)[C@H]1c1ccc(OC)cc1
inactive: [1] 35.8 µM | [7] > 100 µM | [2] > 100 µM | [8] 61.7 µM | [4] > 100 µM | [5] > 100 µM

CC1(O)CCC2(C)C(=O)C1(C)CCC21OCCO1 (stereo not given)
inactive: [7] > 100 µM | [2] > 100 µM | [8] > 100 µM | [3] > 100 µM | [4] > 100 µM | [6] > 100 µM

O=[N+]([O-])c1ccc(C[P+]2(c3ccccc3)CCCCC2)cc1.[O-][Cl+3]([O-])([O-])[O-]
inactive: [7] > 100 µM | [9] > 100 µM | [2] > 100 µM | [3] > 100 µM | [4] 97.7 µM
active: [6] < 0.01 µM

CCOP1(=O)C=CC(Cl)=C(C)C1 (stereo not given)
inactive: [9] 16.9 µM | [2] 6.97 µM | [8] 21.6 µM | [3] 17.4 µM | [4] 12.4 µM | [5] 18.9 µM | [6] 19 µM

Cc1ccc(NC(=O)CC/C(CC(=O)c2ccc(Cl)cc2)=N\NC(=O)C(=O)NN)cc1C
inactive: [7] > 100 µM | [9] > 100 µM | [2] > 100 µM | [8] > 100 µM | [3] > 100 µM | [4] > 100 µM | [5] > 100 µM | [6] > 100 µM

COc1ccc(C(CCC(C)=O)C(=O)O)cc1OC (stereo not given)
inactive: [7] > 100 µM | [9] > 100 µM | [2] > 100 µM | [8] > 100 µM | [3] > 100 µM | [5] > 100 µM | [6] > 100 µM

COc1cc(C2c3cc4c(cc3[C@@H](N(C)c3ccc(N(C)C)cc3)C3COC(=O)C23)OCO4)cc(OC)c1O (stereo not given in full)
active: [1] 0.357 µM | [7] 0.291 µM | [9] 0.21 µM | [2] 0.443 µM | [8] 0.721 µM | [4] 0.312 µM | [6] 0.286 µM
inactive: [3] 13.4 µM

Nc1cccc(S(=O)(=O)NCC(=O)O)c1
inactive: [1] > 100 µM | [7] > 100 µM | [9] > 100 µM | [2] > 100 µM | [8] > 100 µM | [3] > 100 µM | [4] > 100 µM | [5] > 100 µM | [6] > 100 µM

COc1ccc(CNc2cc(OC)cc(OC)c2)cc1
inactive: [8] 72.3 µM | [4] 49.3 µM | [5] 29.6 µM | [6] 63.5 µM

CCOc1ccc(NCc2cc(OC)c(OC)c(OC)c2)cc1
active: [9] 0.333 µM | [2] 0.807 µM
